Biological target: ChoKα (Homo sapiens, UniProt P35790)
Experiment: Confocal microscopy colocalization of JAS239 with anti-ChoKα antibody in fixed MDA-MB-231 cells
Assay type: cell-based
Set-up: endogenous in cells; host or cells: MDA-MB-231
Conditions: cells pre-treated with ChoKα antibody
Procedure: MDA-MB-231 cells plated on sterile glass coverslips were fixed in 4% paraformaldehyde, permeabilized in 0.2% Triton X-100, and blocked in 1% BSA. Staining with 0 or 200 μM JAS239 was performed 30 min prior or 1 h after application of rabbit anti-human ChoKα antibody (ab38290; Abcam, 1:1000 dilution). Coverslips were then stained with goat anti-rabbit antibody conjugated to Texas Red (Vector Laboratories; TI-1000, 1:500), dehydrated, and mounted with VectaShield (Vector Laboratories). Confocal micrographs were acquired on a Zeiss LSM 510META NLC using excitation (Ex.) 543 nm and emission (Em.) 565–615 nm for Texas Red and Ex. 633 nm and Em. > 650 nm for JAS239. The Coloc 2 FIJI software plug-in was used to assess colocalization of the anti-ChoKα antibody with JAS239 by calculating Pearson's Correlation Coefficients and Manders’ Colocalization Coefficients for at least 3 separate ROIs. […]
strongly correlated with ChoKα, unless fixed cells are pre-incubated with ChoKα antibody (Ab). (B) Manders’ Colocalization Coefficients calculated for the Texas-Red channel confirm that the majority of ChoKα is bound by JAS239 when JAS239 is present. (C) Manders’ Colocalization Coefficients calculated for the JAS239 channel indicate that the majority of JAS239 that is present intracellularly is co-distributed with ChoKα. Values represent ± SEM for 3 separate fields of view. […]

Chain of ChoKα (P35790 whole entry): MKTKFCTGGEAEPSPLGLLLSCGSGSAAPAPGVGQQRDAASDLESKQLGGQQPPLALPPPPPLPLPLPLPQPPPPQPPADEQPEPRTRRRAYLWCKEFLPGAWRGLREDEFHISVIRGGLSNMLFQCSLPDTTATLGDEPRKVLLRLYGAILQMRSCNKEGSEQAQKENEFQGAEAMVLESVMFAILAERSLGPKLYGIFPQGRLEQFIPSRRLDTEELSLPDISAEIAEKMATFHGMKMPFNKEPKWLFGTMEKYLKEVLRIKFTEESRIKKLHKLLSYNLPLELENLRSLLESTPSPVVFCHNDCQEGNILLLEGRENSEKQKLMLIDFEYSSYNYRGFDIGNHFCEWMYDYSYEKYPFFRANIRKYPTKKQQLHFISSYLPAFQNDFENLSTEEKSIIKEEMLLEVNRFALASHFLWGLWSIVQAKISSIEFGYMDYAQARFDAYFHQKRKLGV

CC1(C)C(=C/C=C/C=C/C=C/C2=[N+](CCO)c3ccccc3C2(C)C)N(CCO)c2ccccc21 [JAS239]
JAS239 retention after ChoKα antibody pre-treatment: marked reduction in JAS239 retention
